Several values for one entry are separate records, joined by “and”; a condition that tells them apart may be missing. Equal values may be shown once. Toxic doses and inconclusive results are not listed.

For the assay, the system named is mice, LPC-1 plasma cell tumor ip, median survival T/C. The experiment in a line: NCI In Vivo Anticancer Drug Screen. Data for tumor model Lieberman Plasma Cell No. 1 (LPC-1) (intraperitoneal) in unknown mice. Particulars: endpoint: median survival time, higher = longer survival. As to the method:
The antitumor activity of compounds was measured in mice bearing transplantable tumors. Survival or tumor size were measured and the results are expressed as the measurement made in the treated group (T) divided by the measurement made in the vehicle treated control group (C). The tumor model used in this assay is Lieberman Plasma Cell No. 1 (LPC-1) (intraperitoneal) in unknown mice

Take `CN(C)c1nc(N(C)C)nc(N(C)C)n1`: the T/C is 92 % of control (dose: 50.0 mg/kg/injection, schedule: Q01DX009 (ip), vehicle: olive oil, sesame oil, peanut oil); 122 % of control (dose: 100.0 mg/kg/injection, schedule: Q01DX009 (ip), vehicle: other); 110 % of control (dose: 200.0 mg/kg/injection, schedule: Q01DX009 (ip), vehicle: other); 106 % of control (dose: 400.0 mg/kg/injection, schedule: Q01DX009 (ip), vehicle: other).
On to `O=c1[nH]c(=O)n(C2CC(O)C(CO)O2)cc1C(F)(F)F` (stereo not drawn), for which the T/C was 102 % of control (dose: 50.0 mg/kg/injection, schedule: Q01DX028 (sc), vehicle: water); 100 % of control (dose: 100.0 mg/kg/injection, schedule: Q01DX028 (sc), vehicle: water); 100 % of control (dose: 200.0 mg/kg/injection, schedule: Q01DX028 (sc), vehicle: water); 97 % of control (dose: 400.0 mg/kg/injection, schedule: Q01DX028 (sc), vehicle: water).
As to `COC12C(COC(N)=O)C3=C(C(=O)C(C)=C(N)C3=O)N1CC1C2N1C` (stereo not drawn), the T/C (dose: 0.7 mg/kg/injection, schedule: Q01DX028 (sc), vehicle: saline) is 124 % of control; the T/C (dose: 2.0 mg/kg/injection, schedule: Q01DX028 (sc), vehicle: saline) is 178 % of control; the T/C (dose: 3.0 mg/kg/injection, schedule: Q01DX028 (sc), vehicle: saline) is 156 % of control.
In the case of `CN(Cc1cnc2nc(N)nc(N)c2n1)c1ccc(C(=O)N[C@@H](CCC(=O)O)C(=O)O)cc1`, the T/C runs as follows: (dose: 0.12 mg/kg/injection, schedule: Q01DX028 (sc), vehicle: other) 105 % of control; (dose: 1.0 mg/kg/injection, schedule: Q01DX028 (sc), vehicle: other) 98 % of control.
In the case of `N=[N+]=CC(=O)OCC(N)C(=O)O` (stereo not drawn), the T/C was 89 % of control (dose: 1.8 mg/kg/injection, schedule: Q01DX028 (sc), vehicle: water); 102 % of control (dose: 3.0 mg/kg/injection, schedule: Q01DX028 (sc), vehicle: water); 97 % of control (dose: 14.0 mg/kg/injection, schedule: Q01DX028 (sc), vehicle: water).
On to `O=c1[nH]c(=O)n(C2CC(O)C(CO)O2)cc1F` (stereo not drawn), for which the T/C was 102 % of control and 109 % of control (dose: 108.0 mg/kg/injection, schedule: Q01DX028 (sc), vehicle: saline); 97 % of control (dose: 180.0 mg/kg/injection, schedule: Q01DX028 (sc), vehicle: saline); 91 % of control (dose: 300.0 mg/kg/injection, schedule: Q01DX028 (sc), vehicle: saline); 86 % of control (dose: 500.0 mg/kg/injection, schedule: Q01DX028 (sc), vehicle: saline).
With `Nc1cc2ncccc2c2ncccc12`, the T/C by setting is: (dose: 37.5 mg/kg/injection, schedule: Q01DX028 (sc), vehicle: steriod suspending solution) 104 % of control; (dose: 75.0 mg/kg/injection, schedule: Q01DX028 (sc), vehicle: steriod suspending solution) 104 % of control; (dose: 150.0 mg/kg/injection, schedule: Q01DX028 (sc), vehicle: steriod suspending solution) 112 % of control.
